Laboratory results published in patent US20250154212A1, “METHOD OF DISRUPTING MEMORY AND LIPOPEPTIDE FOR USE IN SUCH METHOD” (The Research Foundation for The State University of New York, priority 2023, published 2025).

Tested on: auditory-cued fear/threat memory
Assay: Auditory-cued fear/threat conditioning, infusion into basolateral amygdala, wild-type mice
Assay type: in vivo, mouse
Conditions: 6 nmol in 0.3 μL into each BLA, tested 1 day post-injection
Protocol: Mice were 8-10 weeks old at the time of cannulation and 9-11 weeks old at the beginning of behavioral experiments. Mice were housed with cage-mates in plastic cages and provided with food and water ad libitum. Mice were maintained on a 12 h light/dark cycle (lights on at 7:00 am) and behavioral experiments began at 9:00 am.
Mice were injected intraperitoneally (1 ml/100 g body weight) with an anesthetic cocktail containing ketamine (10 mg/ml) and xylazine (2 mg/ml). Mice were provided with analgesic treatment prior to surgery (carprofen; 5 mg/ml). Guide cannulae (Plastics One, Roanoke, VA) were implanted bilaterally in the basolateral amygdala (from bregma: AP-1.7 mm; L+/−3.0 mm; DV-4.4 mm) and secured to the skull with three jeweler's screws and dental cement. Antisedan (0.66 ml/100 g body weight of 0.5 mg drug/ml solution) was given via i.p. injection after surgery to reverse the anesthesia.
For 7 days following surgery, mice were handled by freely exploring the experimenter's palm for 2-5 min. Mice were habituated, trained, and tested in the same conditioning box (Coulbourn Habitest, Coulboum Instruments) with differing floors and walls to produce two different contexts (Context A and Context B). […] Freezing behavior (cessation of all movement except breathing) during the tone on Test 1 and Test 2 was scored by an experimenter blind to the conditions. […]

Question: Which results are given for `O=S(=O)(O)c1cc(O)c2c(S(=O)(=O)O)cc(S(=O)(=O)O)cc2c1` [ζ-stat, 1-naphthol-3,6,8-trisulphonic acid]?
Answer: auditory-cued fear/threat memory retention (% time freezing to tone): impairs memory retention; auditory-cued fear/threat memory retention (% time freezing to tone) (listed as z-stat): disrupts fear/threat memory retention
